Test results from article PMC6497469 (Infection and Drug Resistance, 2019).

Legend:
[1] = target: PA0847 PAS-GGDEF dual domains (Pseudomonas aeruginosa PAO1); assay: SEC
PA0847 [2] = target: T1, PA0847 (Pseudomonas aeruginosa, UniProt Q9I594); assay: titration of GTPγS to purified PAS-GGDEF; type: binding
T1 sequence (Q9I594 440-735 limits assumed): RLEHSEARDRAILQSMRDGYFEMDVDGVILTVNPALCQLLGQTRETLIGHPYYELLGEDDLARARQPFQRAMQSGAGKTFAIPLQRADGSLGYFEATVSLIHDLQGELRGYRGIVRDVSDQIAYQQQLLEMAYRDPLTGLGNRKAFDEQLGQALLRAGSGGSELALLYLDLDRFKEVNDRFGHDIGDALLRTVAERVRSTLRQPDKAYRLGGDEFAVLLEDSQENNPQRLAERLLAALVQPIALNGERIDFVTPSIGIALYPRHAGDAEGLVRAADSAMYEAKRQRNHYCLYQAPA

PA0847 [3] = target: T1, PA0847; assay: binding of c-di-GMP to purified PAS-GGDEF

PA0847 PAS-GGDEF dual domains (domain or fragment)
stoichiometry N [1]: 2

Nc1nc2c(ncn2[C@@H]2O[C@H](COP(=O)(O)OP(=O)(O)OP(O)(O)=S)[C@@H](O)[C@H]2O)c(=O)[nH]1 [GTPγS]
Kd (PA0847 [2]): 15.3 ± 1.3 µM

Nc1nc2c(ncn2[C@@H]2O[C@@H]3CO[P@](=O)(O)O[C@H]4[C@@H](O)[C@H](n5cnc6c(=O)[nH]c(N)nc65)O[C@@H]4CO[P@](=O)(O)O[C@H]3[C@H]2O)c(=O)[nH]1 [c-di-GMP]
Kd (PA0847 [3]): ~59 µM
